# Earlier results, collected in patent publication US20200330541A1, “COMPOSITIONS AND METHODS FOR MODULATING ENDOTHELIAL CELL MIGRATION AND ANGIOGENESIS” (University of Maine System Board of Trustees, priority 2017, published 2020).
# Legend:
# [1] = healthy humans after consumption of black currant
# endothelial cell = conditions: through the JAK/STAT3 and MAPK signaling pathways
# RAC1 = conditions: smooth muscle cells, 24 hour exposure at 1 μmol/L and 100 μmol/L, compared to untreated cells
# HUVEC = conditions: 200 μM, 100 μM, and 50 μM
molecule,measurement,setting,value
"C[C@@H]1O[C@@H](OC[C@H]2O[C@@H](Oc3cc4c(O)cc(O)cc4[o+]c3-c3cc(O)c(O)c(O)c3)[C@H](O)[C@@H](O)[C@@H]2O)[C@H](O)[C@H](O)[C@H]1O [D3R, delphinidin, 3-O-β-rutinoside]",concentration in the plasma,[1],73.7 ± 35.0 nM
O=c1cc(-c2ccc(O)cc2)oc2cc(O)cc(O)c12 [apigenin],"endothelial cell migration, proliferation, and tubulogenesis",endothelial cell,inhibited
O=C(O)/C=C/c1ccc(O)c(O)c1 [caffeic acid],RAC1 protein synthesis,RAC1,significantly decreased
O=c1oc2c(O)c(O)cc3c(=O)oc4c(O)c(O)cc1c4c23 [ellagic acid],"endothelial cell migration, proliferation, and tubulogenesis",endothelial cell,inhibited
OC[C@H]1O[C@@H](Oc2cc3c(O)cc(O)cc3[o+]c2-c2ccc(O)cc2)[C@H](O)[C@@H](O)[C@@H]1O [pelargonidin-3-glucoside],cell proliferation and smooth muscle cell migration,smooth muscle cell,inhibitory effect
Delph inidin-3-(p-coumaroylrutinoside)-5-glucoside [nasunin],HUVEC proliferation rate,HUVEC,inhibit
epigallocatechin-3 gallate,"endothelial cell migration, proliferation, and tubulogenesis",endothelial cell,inhibited
